In US12560591B2, “Methods of treatment with CD8 T cell-mediated immune therapy” (Providence Health & Services—Oregon, priority 2019, dated 2026):

What was measured:
[1] = tested on: CT26 tumors; experiment: CT26 tumor model: ALK5 inhibitor with chemoradiation (RT+5FU), tumor growth and survival; type: in vivo, mouse; settings: FIG. 6B
Protocol: FIGS. 1A-1D are a series of panels showing that the TGFβR1 antagonist LY2157299 enhances chemo-radiation efficacy dependent on CD8α^+ cells in CT26 tumors. FIG. 1A is a treatment schema in the CT26 tumor model. Six to eight week old BALB/c mice were implanted subcutaneously in the left flank with 2×10^5 CT26 tumor cells. Seven days following implant, animals were randomized based on tumor size, and vehicle control or LY2157299 compound were administered by oral gavage twice daily every 12 hours at 150 mg/kg for 7 consecutive days. At day 14, some mice received five consecutive radiation treatments of 5 Gy targeted to tumor tissue along with 25 mg/kg injections of 5-fluorouracil (5FU) chemotherapy administered intraperitoneally on days 14, 16, and 18. LY treatment groups resumed BID oral dosing from days 21-27. Mean tumor growth (i) and survival (ii) were assessed three times per week up to 100 days or death (FIG. 1B). […] Arrows identify pSMAD2^+CD8^+ cells in vehicle mice. […] NS=not significant, *=p<0.05, **=p<0.01, ***=p<0.001.
(§1) FIGS. 6A-6D are a series of panels showing generation of tumor-specific immune memory following tumor eradication with TGFβ inhibition with chemoradiation. […] The number of mice cured over the total number of mice in each group is indicated in the top right corner. One representative experiment is shown reflective of two independent experiments. Mice who eradicated their tumors were rechallenged with CT26 and 4T1 tumors. CT26 tumor cells were rechallenged on the opposite flank as from the original cured tumor. In FIG. 6D, 4T1 and CT26 tumor establishment and growth was followed for up to 60 days post re-challenge. The number of tumors rejected per total mice rechallenged in each tumor type is indicated in the top right portion of the graph. ***=p<0.001
Animal studies and cell culture: C57BL/6, BALB/c, CD8Cre, Lyz2Cre, and Foxp3-eGFP-CreERT2 mice were purchased from the Jackson Laboratories (Bar Harbor, Maine). ALK5flox/flox mice were a generous gift from Andrew Weinberg (Providence Cancer Center). All transgenic mice were on C57BL/6 background. CT26, MC38, 4T1 and MCA205-OVA tumor cells were grown in DMEM medium supplemented with 10% heat-inactivated fetal bovine serum and 1% penicillin-streptomycin to 60-90% confluence prior to tumor implantation. All cells were washed 2× with 1×PBS and implanted subcutaneously in a 100 μl volume of 1×PBS in the lower flanks. 1×10^5 MC38 cells, 2×10^5 CT26 cells, 5×10^4 4 T1 cells, and 5×10^6 MCA205-OVA cells were used for tumor induction. Tumors were measured 3×/week until they reached the survival end-point of 144 mm^2. […] Following single cell preparation, cells were washed and resuspended in FACS buffer (1×PBS, 1% BSA, 2 mM EDTA) and counted prior to FACS staining using a Guava EasyCyte cytometer (Millipore). […]

[2] = tested on: CT26 cells; experiment: Rechallenge of cured mice with CT26 cells; type: in vivo, mouse; settings: cured animals (RT/5-FU/LY3200882), rechallenge at day 73 post-implant, FIG. 6C-D
Source text: as §1
(§2) In order to evaluate whether the improved efficacy of RT+5FU+LY (FIG. 1B) was due to the direct effect of ALK5 inhibition on CD8^+ T cells, LY treatment in ALK5^ΔCD8 mice was tested.

[3] = tested on: 4T1 cell line; experiment: Rechallenge of cured mice with 4T1 cells; type: in vivo, mouse; settings: cured animals (RT/5-FU/LY3200882), 4T1 implanted simultaneously on opposite flank, FIG. 6C-D
Source text: as §1, §2

[4] = tested on: peripheral blood CD3^+CD4^−CXCR3^+ T cells; experiment: HNSCC patients, neoadjuvant anti-PD-1: peripheral blood CXCR3+ T cells; type: in vivo, human; settings: one week after first dose of nivolumab 240 mg IV, FIG. 13B
Protocol: FIGS. 13A-13D are a series of panels showing change in CXCR3^+ cells in response to checkpoint blockade. […] Peripheral blood was drawn at baseline and one week after anti-PD-1 therapy (nivolumab). Surgery was performed at week six for pathologic assessment. […] Patients are grouped by nodal status following neoadjuvant treatment (ypN). FIGS. 13C and 13D show HPV+ patients from FIG. 13B and HPV-patients from FIG. 13B, respectively. Given the low number of patient(s) with residual nodal disease (ypN+), statistics could not be accurately performed in the HPV+ and HPV− subgroups.
Patients with locoregionally advanced HNSCC were treated with anti-PD-1 (nivolumab, 240 mg, IV) three times Q2W. Radiation was administered following the first anti-PD-1 treatment, and surgery was performed at week 6 to assess pathologic status. Patients also received stereotactic body radiation therapy (SBRT) following the first dose of nivolumab. Peripheral blood was drawn at baseline and one week after administration of the first dose of nivolumab. […] As HPV+ and HPV-HNSCC have marked differences in natural history and/or behavior, these cohorts were also analyzed separately (FIGS. 13C and 13D). When comparing response to neoadjuvant therapy in the HPV+ and HPV− cohorts separately, the change in percent CXCR3^+CD3^+CD4^− T cells was more distinct.

CC(C)(O)c1cc(Nc2cc(Oc3cn(C4CC4)nc3C3CCOCC3)ccn2)ccn1 [LY3200882]
tumor cures (animals cured of total) ([1]; CT26, LY3200882 with chemoradiation (RT/5-FU)): 6 of 7 | median survival ([1]; CT26, LY3200882 with chemoradiation, p<0.001 vs RT+5FU): not reached | tumor rechallenge outcome [2]: rejected tumor rechallenge | tumor rechallenge outcome [3]: but not the immunologically distinct 4T1 cell line

nivolumab: anti-PD-1 antibody
change in peripheral blood CD3^+CD4^−CXCR3^+ T cells vs nodal status [4]: decrease in CD3^+CD4^−CXCR3^+ T cells following neoadjuvant nivolumab correlated with clearance of nodal disease
